Results reported in patent US20220267754A1, “VECTOR-BASED MUTAGENESIS SYSTEM” (priority 2015, published 2022).

Tests used:
[1] = system: E. coli; settings: tabulated from Antimicrobial Index Knowledgebase; cited from earlier work
[2] = system: E. coli MG1655 ΔrecA::apra; format: cell-based

Cc1ncc([N+](=O)[O-])n1CCO [metronidazole]
MIC [1]: 8 to 32 µg/mL

CCOS(C)(=O)=O [EMS, ethyl methanesulfonate]
fraction of cells resistant, CRB [2]: 0.00E+00 | fraction of cells resistant, CTX [2]: 1.67E−07 | fraction of cells resistant, FOS [2]: 3.75E−04 | fraction of cells resistant, KAN [2]: 8.17E−04 | fraction of cells resistant, MIX [2]: 1.10E−04 | fraction of cells resistant, RIF [2]: 6.68E−05 | fraction of cells resistant, SPC [2]: 0.00E+00 | fraction of cells resistant, STR [2]: 1.33E−06 | fraction of cells resistant, TET [2]: 0.00E+00

Nc1ncc2[nH]cnc2n1 [2AP, 2-aminopurine]
fraction of cells resistant, CRB [2]: 1.17E−07 | fraction of cells resistant, CTX [2]: 2.80E−06 | fraction of cells resistant, FOS [2]: 4.83E−04 | fraction of cells resistant, KAN [2]: 1.53E−03 | fraction of cells resistant, MIX [2]: 2.03E−05 | fraction of cells resistant, RIF [2]: 1.03E−05 | fraction of cells resistant, SPC [2]: 2.50E−07 | fraction of cells resistant, STR [2]: 3.17E−07 | fraction of cells resistant, TET [2]: 0.00E+00

CO/N=C(\C(=O)N[C@@H]1C(=O)N2C(C(=O)O)=C(COC(C)=O)CS[C@H]12)c1csc(N)n1 [cefotaxime]
MIC [1]: 0.016 to 0.25 µg/mL

CN[C@@H]1[C@H](O)[C@H](NC)[C@H]2O[C@@]3(O)C(=O)C[C@@H](C)O[C@H]3O[C@@H]2[C@H]1O [spectinomycin]
MIC [1]: 8 to 64 µg/mL

[H]/N=C(/N)N[C@H]1[C@H](O)[C@@H](O)[C@H](O[C@@H]2O[C@@H](C)[C@](O)(C=O)[C@H]2O[C@@H]2O[C@@H](CO)[C@H](O)[C@@H](O)[C@@H]2NC)[C@@H](N/C(N)=N\[H])[C@@H]1O [streptomycin]
MIC [1]: 1 to 16 µg/mL

CCn1cc(C(=O)O)c(=O)c2cc(F)c(N3CCNCC3)cc21 [norfloxacin]
MIC [1]: 0.016 to 0.125 µg/mL

CC1(C)S[C@@H]2[C@H](NC(=O)C(C(=O)O)c3ccccc3)C(=O)N2[C@H]1C(=O)O (some centres unmarked) [carbenicillin]
MIC [1]: 2 to 25 µg/mL

C[C@@H]1O[C@@H]1P(=O)(O)O [fosfomycin]
MIC [1]: 0.125 to 8 µg/mL

CO[C@H]1/C=C/O[C@@]2(C)Oc3c(C)c(O)c4c(O)c(c(/C=N/N5CCN(C)CC5)c(O)c4c3C2=O)NC(=O)/C(C)=C\C=C\[C@H](C)[C@H](O)[C@@H](C)[C@@H](O)[C@@H](C)[C@H](OC(C)=O)[C@@H]1C [rifampin]
MIC [1]: 0.5 to 16 µg/mL
